# Assay results from patent publication US20260284019A1, “CARBOXAMIDE COMPOUNDS AS SUMO ACTIVATING COMPOUNDS FOR TREATMENT OF CARDIOVASCULAR DISEASES” (NOVOHEART INTERNATIONAL LIMITED, priority 2023, published 2026).
# “Also recorded” adds a separate entry of the source.
# Key:
# [1] = molecular target: T1, SUMO E1 ligase protein (Homo sapiens, UniProt Q9UBE0+Q9UBT2); test: In vitro SUMO E1 ATP hydrolysis assay for SUMO E1 ligase activity (AMP produced, luciferase luminescence); format: biochemical; conditions: racemic mixtures; for SUMO E1 activity (luminescence), ranking among the 11 compounds: 1 μM concentration; for dose-dependent effect in SUMO E1 assays compared with control compound N106: luminescence, FIG. 4B
# T1 sequence (Q9UBE0 1-346): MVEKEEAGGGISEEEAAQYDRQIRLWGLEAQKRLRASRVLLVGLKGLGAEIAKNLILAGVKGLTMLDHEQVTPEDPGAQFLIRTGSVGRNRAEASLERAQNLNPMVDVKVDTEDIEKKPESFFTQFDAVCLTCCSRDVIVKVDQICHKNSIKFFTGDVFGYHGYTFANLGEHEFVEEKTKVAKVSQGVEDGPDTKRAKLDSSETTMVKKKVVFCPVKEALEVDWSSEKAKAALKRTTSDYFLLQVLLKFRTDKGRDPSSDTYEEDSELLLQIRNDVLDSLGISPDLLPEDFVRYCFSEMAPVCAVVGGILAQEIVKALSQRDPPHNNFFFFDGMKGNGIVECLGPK
# T1 sequence (Q9UBT2 1-640): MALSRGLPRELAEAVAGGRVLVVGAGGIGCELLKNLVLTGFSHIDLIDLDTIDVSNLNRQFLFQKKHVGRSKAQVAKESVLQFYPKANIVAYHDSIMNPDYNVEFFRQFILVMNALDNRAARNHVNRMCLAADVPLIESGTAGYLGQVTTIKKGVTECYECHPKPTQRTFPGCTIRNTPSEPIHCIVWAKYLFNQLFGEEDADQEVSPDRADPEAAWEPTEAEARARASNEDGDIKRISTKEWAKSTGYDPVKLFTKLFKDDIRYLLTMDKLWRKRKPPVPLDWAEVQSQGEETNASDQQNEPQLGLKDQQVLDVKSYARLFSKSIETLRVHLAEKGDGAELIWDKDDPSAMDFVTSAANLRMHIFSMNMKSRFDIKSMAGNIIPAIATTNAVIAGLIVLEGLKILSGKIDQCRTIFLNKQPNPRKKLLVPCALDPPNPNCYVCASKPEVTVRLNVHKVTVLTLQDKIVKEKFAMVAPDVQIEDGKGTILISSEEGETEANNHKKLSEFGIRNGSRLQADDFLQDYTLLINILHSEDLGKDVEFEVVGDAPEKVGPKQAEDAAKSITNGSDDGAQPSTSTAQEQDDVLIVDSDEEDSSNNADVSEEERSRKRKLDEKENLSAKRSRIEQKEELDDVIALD
# Experimental: (§1) To investigate the effects of carboxamide compounds as SUMOylation activators, the compounds were subjected to an ATP-based assay of SUMO E1 ligase activity. The racemic mixture of each compound was first tested with the SUMO E1 ligase assay to test for SUMO activation activity. Compounds with no SUMO E1 ligase activity were excluded. For compounds with recorded SUMO E1 ligase activity, their four pure stereoisomers were tested for SUMO E1 ligase activity by measuring the adenosine monophosphate (AMP) produced from the E1 ligase reaction as described below. Each pure stereoisomer was also subjected to functional analysis in engineered cardiac tissues (FIG. 3A). The pure stereoisomers of compounds with SUMO E1 ligase activity were administered to human ventricular cardiac tissue strips that had been subjected to a maturation protocol (see below). […] Stereoisomers that could induce SERCA2a SUMOylation were further tested for their inotropic effects, in hvCTS models of cardiomyopathy and heart failure, by fabrication of hvCTS with cardiomyocytes derived from human induced pluripotent stem cells (i.e., hiPSCs) of patients with cardiomyopathy.
# Stereoisomers of the test compounds were incubated with SUMO E1 ligase protein and ATP. E1 ligase activation by the test compound was determined by measuring the AMP produced during the enzymatic reaction after removal of the remaining ATP by ATP adenyl cyclase and converting AMP to ADP by polyphosphate-AMP phosphotransferase. The converted ADP was further converted to ATP using […] and detected through luciferase reaction.
# [2] = test system: human ventricular cardiac tissue strips (hvCTS); test: Contractility of matured human ventricular cardiac tissue strips (hvCTS), twitch force from post deflection; format: cell-based; conditions: for effect on developed force: matured hvCTS with positive force frequency relationship, day 24; for effect on developed force / effect on relaxation time: 1.5 Hz, 10 minutes after each dose
# Description: FIG. 5 discloses the dose-dependent effects of stereoisomers of Compounds 6 on developed force in human cardiac tissue strips that were subjected to maturation protocol (see description below in the section entitled “Maturation of hvCTS”) with maturation media and electrical stimulation of 0.5 Hz from day 7-10, 1.0 Hz from day 10-13, 1.5 Hz from day 13-15, 2.0 Hz from day 16-19, 2.5 Hz from day 19-22 and 3.0 from day 22-24. Contractile data were collected at day 24 post-hvCTS fabrication. Developed forces were measured at 1.5 Hz, 10 minutes after administration of each dose of each stereoisomer. Only hvCTSs with positive force frequency relationships (+FFRs) were tested.
# Contractile data were collected at day 24 post-hvCTS fabrication. Developed forces were measured at 1.5 Hz, 10 minutes after administration of each dose of the stereoisomer. Only hvCTSs with positive force frequency relationships (+FFRs) were tested.
# as §1
# The effects of compounds on cardiac muscle function as evaluated by the Novoheart hvCTS assay are derived from tracings of twitch force versus time. The twitch force may be calculated from measurements of end-post deflection based on a published beam-bending equation as previously described.^29, 30 The twitch force tracings are then analyzed from each “heartbeat” of the tissue, and averaged over multiple beats to extract metrics related to the beat rate frequency and beat rate variability, the passive and active tissue forces, and the contraction and relaxation kinetics, as detailed previously in the field^29-32, and briefly described as follows:
# For each beat, the “passive (or diastolic) force” is the minimum value of the twitch force; the “active (or systolic) force” is the maximum value of the twitch force; and the “contractile (or developed) force” is the difference between the systolic and diastolic forces.
# “Contractile kinetics”, in some aspects, are analyzed by examining the twitch force tracing during the increase from the diastolic minimum to the systolic maximum portion of the curve, and these can include the duration of rise time from diastolic to systolic force and related metrics (e.g. duration of rise time from 5% maximum to 95% maximum force, and the like), the area under the curve of rise time from minimum to maximum force, the maximum rate of change of force versus time during contraction (max+dF/dt), and other related metrics. […]
# [3] = cited from earlier work
smiles,measurement,setting,value
"CC(NC(=O)C1CC(=O)N(c2ccc(C(=O)c3ccccc3)cc2)C1)c1cnn2ccccc12 (mixture of isomers) [Compound 6, 1-(4-benzoylphenyl)-5-oxo-N-(1-(pyrazolo[1,5-a]pyridin-3-yl)ethyl) pyrrolidine-3-carboxamide]","SUMO E1 activity (luminescence), ranking among the 11 compounds",[1],largest effects; also recorded: highest
same,dose-dependent effect in SUMO E1 assays compared with control compound N106,[1],larger effects than the control compound N106
"CC(NC(=O)C1CC(=O)N(c2cccnc2)C1)c1cnn2ccccc12 (mixture of isomers) [Compound 9, 5-oxo-N-(1-(pyrazolo[1,5-a]pyridin-3-yl)ethyl)-1-(pyridin-3-yl) pyrrolidine-3-carboxamide]","SUMO E1 activity (luminescence), ranking among the 11 compounds",[1],largest effects; also recorded: highest
same,dose-dependent effect in SUMO E1 assays compared with control compound N106,[1],larger effects than the control compound N106
"CC(NC(=O)C1CC(=O)N(c2cnc3ccccc3c2)C1)c1cnn2ccccc12 (mixture of isomers) [Compound 11, 5-oxo-N-(1-(pyrazolo[1,5-a]pyridin-3-yl)ethyl)-1-(quinolin-3-yl) pyrrolidine-3-carboxamide]","SUMO E1 activity (luminescence), ranking among the 11 compounds",[1],largest effects; also recorded: highest
"C[C@@H](NC(=O)[C@@H]1CC(=O)N(c2ccc(C(=O)c3ccccc3)cc2)C1)c1cnn2ccccc12 [Compound 6-1, 1-(4-benzoylphenyl)-(R)-5-oxo-N—((R)-1-(pyrazolo[1,5-a]pyridin-3-yl)ethyl) pyrrolidine-3-carboxamide]",concentration at which the increase in developed force peaked,[2]; matured hvCTS,1 µM
same,contractility (overall conclusion),[2]; matured hvCTS,improved
same,effect on contraction time,[2]; matured hvCTS,did not show any significant difference
same,effect on passive tension,[2]; matured hvCTS,did not show any significant difference
same,effect on developed force,[2],positive inotropic effects; also recorded: concentration-dependent increase
same,effect on relaxation time,[2]; matured hvCTS,did not show any significant difference
"C[C@H](NC(=O)[C@H]1CC(=O)N(c2ccc(C(=O)c3ccccc3)cc2)C1)c1cnn2ccccc12 [Compound 6-2, 1-(4-benzoylphenyl)-(S)-5-oxo-N—((S)-1-(pyrazolo[1,5-a]pyridin-3-yl)ethyl) pyrrolidine-3-carboxamide]",concentration at which the increase in developed force peaked,[2]; matured hvCTS,1 µM
same,contractility (overall conclusion),[2]; matured hvCTS,improved
same,effect on contraction time,[2]; matured hvCTS,did not show any significant difference
same,effect on passive tension,[2]; matured hvCTS,did not show any significant difference
same,effect on developed force,[2],positive inotropic effects; also recorded: concentration-dependent increase
same,effect on relaxation time,[2]; matured hvCTS,did not show any significant difference
"C[C@@H](NC(=O)[C@@H]1CC(=O)N(c2cccnc2)C1)c1cnn2ccccc12 [Compound 9-1, (R)-5-oxo-N—((R)-1-(pyrazolo[1,5-a]pyridin-3-yl)ethyl)-1-(pyridin-3-yl) pyrrolidine-3-carboxamide]",effect on relaxation time,[2]; matured hvCTS,decrease in relaxation time that was dose dependent
"C[C@H](NC(=O)[C@H]1CC(=O)N(c2cccnc2)C1)c1cnn2ccccc12 [Compound 9-2, (S)-5-oxo-N—((S)-1-(pyrazolo[1,5-a]pyridin-3-yl)ethyl)-1-(pyridin-3-yl) pyrrolidine-3-carboxamide]",effect on relaxation time,[2]; matured hvCTS,decrease in relaxation time that was dose dependent
"C[C@H](NC(=O)[C@@H]1CC(=O)N(c2cccnc2)C1)c1cnn2ccccc12 [Compound 9-3, (R)-5-oxo-N—((S)-1-(pyrazolo[1,5-a]pyridin-3-yl)ethyl)-1-(pyridin-3-yl) pyrrolidine-3-carboxamide]",contractile kinetics (overall conclusion),[2]; matured hvCTS,improved
same,effect on relaxation time,[2]; matured hvCTS,decrease in relaxation time that was dose dependent
same,decrease in relaxation time,"[2]; matured hvCTS, at 10 μM",15%
"C[C@@H](NC(=O)[C@H]1CC(=O)N(c2cccnc2)C1)c1cnn2ccccc12 [Compound 9-4, (S)-5-oxo-N—((R)-1-(pyrazolo[1,5-a]pyridin-3-yl)ethyl)-1-(pyridin-3-yl) pyrrolidine-3-carboxamide]",inhibition at 1 µM,"[2]; Homo sapiens, 10 min, matured hvCTS, at 1 μM, read-out: maximum decrease in developed force",10%
same,effect on developed force,[2],small but significant dose-dependent decrease
same,effect on relaxation time,[2]; matured hvCTS,decrease in relaxation time that was dose dependent
"COc1ccc(-c2nnc(Nc3nc4c(OC)cccc4s3)o2)cc1 [Compound N106, N-(4-methoxybenzo[d]thiazol-2-yl)-5-(4-methoxyphenyl)-1,3,4-oxadiazol-2-amine]",half-life in vivo,[3],too short
